# Legend:
# Experiment in all cases: biochemical
# Design in all cases: DiscoverX KINOMEscan scanMAX competition binding panel, single concentration, percent of control; remaining binding: dose or concentration left out as unconfirmed
# Conditions in all cases: KINOMEscan binding, percent of control; read-out: Table S4_SCANMAX REPORT - related to Fig. 1 / Percent Control
# MINK = molecular target: T1, MINK (Homo sapiens, UniProt Q8N4C8)
# T1 construct: gene MINK1
# NEK9 = NEK9 (Homo sapiens, UniProt Q8TD19)
# FLT3(R834Q) = FLT3(R834Q) (Homo sapiens, UniProt P36888, R834Q)
# FER = FER (Homo sapiens, UniProt P16591)
# LKB1 = molecular target: T2, LKB1 (Homo sapiens, UniProt Q15831)
# T2 construct: gene STK11
# STK16 = STK16 (Homo sapiens, UniProt O75716)
# CAMK2G = CAMK2G (Homo sapiens, UniProt Q13555)
# YANK3 = molecular target: T3, YANK3 (Homo sapiens, UniProt Q86UX6)
# T3 construct: gene STK32C
# DRAK2 = molecular target: T4, DRAK2 (Homo sapiens, UniProt O94768)
# T4 construct: gene STK17B
# TNK1 = TNK1 (Homo sapiens, UniProt Q13470)
# MERTK = MERTK (Homo sapiens, UniProt Q12866)
# LIMK2 = LIMK2 (Homo sapiens, UniProt P53671)
# MET(M1250T) = MET(M1250T) (Homo sapiens, UniProt P08581, M1250T)
# LCK = LCK (Homo sapiens, UniProt P06239)
# [1] = molecular target: T5, RSK2(Kin.Dom.1-N-terminal) (Homo sapiens, UniProt P51812)
# T5 construct: gene RPS6KA3; Kin.Dom.1-N-terminal
# RIOK1 = RIOK1 (Homo sapiens, UniProt Q9BRS2)
# TNNI3K = TNNI3K (Homo sapiens, UniProt Q59H18)
# ARK5 = molecular target: T6, ARK5 (Homo sapiens, UniProt O60285)
# T6 construct: gene NUAK1
# Sequence of STK16 (O75716 whole entry): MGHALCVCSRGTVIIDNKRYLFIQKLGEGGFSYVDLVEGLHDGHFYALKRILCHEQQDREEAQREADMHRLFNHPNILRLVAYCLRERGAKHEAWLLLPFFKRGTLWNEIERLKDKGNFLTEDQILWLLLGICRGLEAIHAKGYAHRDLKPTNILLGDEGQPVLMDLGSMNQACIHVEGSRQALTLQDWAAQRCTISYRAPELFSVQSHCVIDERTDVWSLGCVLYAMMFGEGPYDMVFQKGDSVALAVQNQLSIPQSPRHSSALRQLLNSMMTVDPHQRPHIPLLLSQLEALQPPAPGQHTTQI
# T2 sequence (Q15831 whole entry): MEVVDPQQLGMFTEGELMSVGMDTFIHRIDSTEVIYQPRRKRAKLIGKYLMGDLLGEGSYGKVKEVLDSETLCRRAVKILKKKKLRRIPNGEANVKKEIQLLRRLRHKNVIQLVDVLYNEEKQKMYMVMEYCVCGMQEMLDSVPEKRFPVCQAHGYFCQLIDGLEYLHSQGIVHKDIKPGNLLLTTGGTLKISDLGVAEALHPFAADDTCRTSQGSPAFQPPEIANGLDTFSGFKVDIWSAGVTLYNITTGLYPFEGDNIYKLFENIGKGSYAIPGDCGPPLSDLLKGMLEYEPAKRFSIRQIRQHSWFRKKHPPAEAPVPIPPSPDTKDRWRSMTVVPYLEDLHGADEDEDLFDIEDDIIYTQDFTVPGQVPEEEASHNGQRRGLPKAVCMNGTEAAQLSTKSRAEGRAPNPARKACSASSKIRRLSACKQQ
# T1 sequence (Q8N4C8 whole entry): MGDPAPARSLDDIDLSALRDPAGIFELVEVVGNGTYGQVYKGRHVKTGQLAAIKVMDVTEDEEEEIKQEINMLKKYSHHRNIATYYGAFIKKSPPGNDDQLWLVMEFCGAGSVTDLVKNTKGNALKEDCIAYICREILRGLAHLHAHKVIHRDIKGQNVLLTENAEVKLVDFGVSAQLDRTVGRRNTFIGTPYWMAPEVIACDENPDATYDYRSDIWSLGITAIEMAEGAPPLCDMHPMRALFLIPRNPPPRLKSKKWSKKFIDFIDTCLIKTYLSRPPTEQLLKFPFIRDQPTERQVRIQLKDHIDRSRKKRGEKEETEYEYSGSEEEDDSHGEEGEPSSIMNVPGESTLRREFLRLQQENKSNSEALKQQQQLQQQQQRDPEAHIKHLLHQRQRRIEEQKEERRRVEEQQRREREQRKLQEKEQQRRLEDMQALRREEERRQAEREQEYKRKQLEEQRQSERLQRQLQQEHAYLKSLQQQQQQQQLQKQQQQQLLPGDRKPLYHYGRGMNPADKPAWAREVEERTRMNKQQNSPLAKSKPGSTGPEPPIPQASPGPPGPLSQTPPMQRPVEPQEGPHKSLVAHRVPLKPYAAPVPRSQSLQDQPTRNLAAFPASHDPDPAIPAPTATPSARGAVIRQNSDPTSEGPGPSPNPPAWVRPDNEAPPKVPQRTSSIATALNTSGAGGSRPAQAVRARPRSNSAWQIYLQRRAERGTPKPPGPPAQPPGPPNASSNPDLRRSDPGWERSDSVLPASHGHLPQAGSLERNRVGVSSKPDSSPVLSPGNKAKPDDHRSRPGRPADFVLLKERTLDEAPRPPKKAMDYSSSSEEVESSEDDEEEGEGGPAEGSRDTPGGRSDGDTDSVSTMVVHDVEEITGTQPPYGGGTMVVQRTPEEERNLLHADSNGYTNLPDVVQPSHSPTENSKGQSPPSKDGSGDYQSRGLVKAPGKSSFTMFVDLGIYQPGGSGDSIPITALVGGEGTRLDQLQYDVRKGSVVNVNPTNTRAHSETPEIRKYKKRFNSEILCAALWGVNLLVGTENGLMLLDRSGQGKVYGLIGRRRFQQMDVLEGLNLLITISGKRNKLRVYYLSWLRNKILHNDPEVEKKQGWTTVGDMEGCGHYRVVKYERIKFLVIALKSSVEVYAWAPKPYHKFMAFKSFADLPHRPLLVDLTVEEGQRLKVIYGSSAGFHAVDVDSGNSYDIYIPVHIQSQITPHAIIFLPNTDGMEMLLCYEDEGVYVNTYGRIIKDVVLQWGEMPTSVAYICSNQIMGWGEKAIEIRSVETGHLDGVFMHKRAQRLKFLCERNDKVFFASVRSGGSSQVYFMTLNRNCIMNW
# T5 sequence (P51812 whole entry): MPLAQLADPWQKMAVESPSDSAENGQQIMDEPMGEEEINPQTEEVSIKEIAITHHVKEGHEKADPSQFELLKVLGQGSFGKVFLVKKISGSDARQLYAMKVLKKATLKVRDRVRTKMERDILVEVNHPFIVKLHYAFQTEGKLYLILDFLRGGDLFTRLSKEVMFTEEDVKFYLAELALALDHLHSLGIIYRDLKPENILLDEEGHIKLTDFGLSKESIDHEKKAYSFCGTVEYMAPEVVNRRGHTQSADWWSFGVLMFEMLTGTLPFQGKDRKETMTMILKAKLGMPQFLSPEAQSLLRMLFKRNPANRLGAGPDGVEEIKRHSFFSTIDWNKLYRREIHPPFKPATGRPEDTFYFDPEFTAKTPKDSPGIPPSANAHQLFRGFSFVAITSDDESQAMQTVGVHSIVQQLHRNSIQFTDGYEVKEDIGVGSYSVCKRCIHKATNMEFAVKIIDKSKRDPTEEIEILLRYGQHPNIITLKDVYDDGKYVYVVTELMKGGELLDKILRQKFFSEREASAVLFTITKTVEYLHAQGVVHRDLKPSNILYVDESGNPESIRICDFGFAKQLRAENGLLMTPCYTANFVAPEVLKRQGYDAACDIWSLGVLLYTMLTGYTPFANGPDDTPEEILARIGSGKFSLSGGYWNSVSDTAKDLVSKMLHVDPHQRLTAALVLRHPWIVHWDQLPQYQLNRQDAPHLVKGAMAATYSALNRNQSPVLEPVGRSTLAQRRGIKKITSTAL
# Sequence of NEK9 (Q8TD19 whole entry): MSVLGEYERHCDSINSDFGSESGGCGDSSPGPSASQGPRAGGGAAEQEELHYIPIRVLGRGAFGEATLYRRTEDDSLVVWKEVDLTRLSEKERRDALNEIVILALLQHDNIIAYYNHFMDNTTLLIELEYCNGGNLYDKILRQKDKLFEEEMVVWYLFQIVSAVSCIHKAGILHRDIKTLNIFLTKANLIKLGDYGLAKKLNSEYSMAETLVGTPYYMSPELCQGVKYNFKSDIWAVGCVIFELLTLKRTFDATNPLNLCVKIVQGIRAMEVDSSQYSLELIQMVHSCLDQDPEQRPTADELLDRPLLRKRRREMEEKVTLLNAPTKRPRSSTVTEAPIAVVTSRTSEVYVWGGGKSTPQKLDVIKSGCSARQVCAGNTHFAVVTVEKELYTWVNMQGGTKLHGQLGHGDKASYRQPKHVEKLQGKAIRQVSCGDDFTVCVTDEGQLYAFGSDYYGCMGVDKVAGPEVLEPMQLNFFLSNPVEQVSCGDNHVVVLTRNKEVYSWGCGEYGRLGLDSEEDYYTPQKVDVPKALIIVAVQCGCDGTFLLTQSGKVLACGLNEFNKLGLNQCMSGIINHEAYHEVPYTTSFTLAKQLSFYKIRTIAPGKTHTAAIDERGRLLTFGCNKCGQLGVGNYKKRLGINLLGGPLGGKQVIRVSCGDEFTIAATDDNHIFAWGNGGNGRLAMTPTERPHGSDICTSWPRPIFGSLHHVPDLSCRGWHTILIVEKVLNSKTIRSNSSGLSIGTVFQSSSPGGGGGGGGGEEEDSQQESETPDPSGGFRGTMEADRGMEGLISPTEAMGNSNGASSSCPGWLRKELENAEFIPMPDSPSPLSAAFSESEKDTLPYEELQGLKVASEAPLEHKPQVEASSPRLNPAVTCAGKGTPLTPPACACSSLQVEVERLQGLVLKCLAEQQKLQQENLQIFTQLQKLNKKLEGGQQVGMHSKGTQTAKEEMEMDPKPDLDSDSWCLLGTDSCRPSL
# Sequence of LIMK2 (P53671 whole entry): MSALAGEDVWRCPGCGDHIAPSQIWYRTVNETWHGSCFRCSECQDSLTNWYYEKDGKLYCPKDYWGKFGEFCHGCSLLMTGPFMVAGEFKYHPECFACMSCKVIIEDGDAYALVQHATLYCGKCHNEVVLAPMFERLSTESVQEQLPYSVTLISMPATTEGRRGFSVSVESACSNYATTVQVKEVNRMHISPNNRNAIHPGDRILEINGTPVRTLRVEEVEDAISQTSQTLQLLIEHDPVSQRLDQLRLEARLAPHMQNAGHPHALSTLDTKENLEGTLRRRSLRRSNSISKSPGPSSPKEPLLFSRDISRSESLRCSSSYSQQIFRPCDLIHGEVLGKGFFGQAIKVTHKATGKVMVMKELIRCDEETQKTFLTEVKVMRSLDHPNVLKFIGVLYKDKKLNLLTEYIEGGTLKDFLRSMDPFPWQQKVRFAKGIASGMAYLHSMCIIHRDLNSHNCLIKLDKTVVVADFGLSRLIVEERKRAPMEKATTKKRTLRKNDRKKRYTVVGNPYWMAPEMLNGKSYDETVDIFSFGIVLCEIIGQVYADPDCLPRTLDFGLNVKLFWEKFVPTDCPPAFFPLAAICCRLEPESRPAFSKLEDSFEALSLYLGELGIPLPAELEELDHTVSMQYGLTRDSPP
# Sequence of RIOK1 (Q9BRS2 whole entry): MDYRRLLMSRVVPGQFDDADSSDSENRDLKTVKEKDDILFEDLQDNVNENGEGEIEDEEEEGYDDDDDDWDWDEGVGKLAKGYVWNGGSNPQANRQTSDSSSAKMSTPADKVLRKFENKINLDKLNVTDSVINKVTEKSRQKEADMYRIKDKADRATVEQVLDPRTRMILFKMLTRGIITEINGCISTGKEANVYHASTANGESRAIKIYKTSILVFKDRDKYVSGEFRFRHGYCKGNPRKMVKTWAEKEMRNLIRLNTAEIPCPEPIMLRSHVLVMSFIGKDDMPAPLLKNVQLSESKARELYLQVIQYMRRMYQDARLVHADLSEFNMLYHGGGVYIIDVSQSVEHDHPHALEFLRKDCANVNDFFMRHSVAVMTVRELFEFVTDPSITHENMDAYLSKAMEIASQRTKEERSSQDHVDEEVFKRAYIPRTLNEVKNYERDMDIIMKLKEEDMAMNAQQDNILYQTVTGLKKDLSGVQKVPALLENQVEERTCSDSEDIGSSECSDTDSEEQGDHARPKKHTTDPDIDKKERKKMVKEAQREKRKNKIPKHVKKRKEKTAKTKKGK
smiles,measurement,setting,value
c1ccc2c(c1)Sc1ccccc1N2CCN1CCOCC1 [J54],remaining binding,MINK,100%
same,remaining binding,NEK9,100%
same,remaining binding,FLT3(R834Q),100%
same,remaining binding,FER,100%
same,remaining binding,LKB1,89%
same,remaining binding,STK16,99%
same,remaining binding,CAMK2G,100%
same,remaining binding,YANK3,100%
same,remaining binding,DRAK2,83%
same,remaining binding,TNK1,99%
same,remaining binding,MERTK,100%
same,remaining binding,LIMK2,100%
same,remaining binding,MET(M1250T),67%
same,remaining binding,LCK,100%
same,remaining binding,[1],97%
same,remaining binding,RIOK1,59%
same,remaining binding,TNNI3K,100%
same,remaining binding,ARK5,79%

# — publication PMC7486443, “Generation of Phenothiazine with Potent Anti-TLK1 Activity for Prostate Cancer Therapy” (iScience, 2020)
